# From PubChem BioAssay (NCI)
#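 Values below derive from 48-hour exposures of cells grown in 96-well plates, with endpoints linearly interpolated between the two concentrations bracketing the appropriate inhibition level. TGI denotes the concentration required for complete inhibition of growth.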
# Key:
# Assay in all cases: inhibition of tumour cell growth, NCI panel, 48 h
# 786-0 renal = test system: 786-0 renal
# A498 renal = test system: A498 renal
# ACHN renal = test system: ACHN renal
# CCRF-CEM leukemia = test system: CCRF-CEM leukemia
# COLO 205 colon = test system: COLO 205 colon
# HCT-116 colon = test system: HCT-116 colon
# HL-60(TB) leukemia = test system: HL-60(TB) leukemia
# HOP-62 NSCLC = test system: HOP-62 NSCLC
# HOP-92 NSCLC = test system: HOP-92 NSCLC
# HT29 colon = test system: HT29 colon
# IGROV1 ovarian = test system: IGROV1 ovarian
# K-562 leukemia = test system: K-562 leukemia
# KM12 colon = test system: KM12 colon
# KM20L2 colon = test system: KM20L2 colon
# LXFL 529 NSCLC = test system: LXFL 529 NSCLC
# M14 melanoma = test system: M14 melanoma
# M19-MEL melanoma = test system: M19-MEL melanoma
# MALME-3M melanoma = test system: MALME-3M melanoma
# NCI-H23 lung = test system: NCI-H23 lung
# NCI-H460 lung = test system: NCI-H460 lung
# NCI-H522 lung = test system: NCI-H522 lung
# OVCAR-4 ovarian = test system: OVCAR-4 ovarian
# OVCAR-5 ovarian = test system: OVCAR-5 ovarian
# RPMI-8226 leukemia = test system: RPMI-8226 leukemia
# RXF 393 renal = test system: RXF 393 renal
# SF-268 CNS = test system: SF-268 CNS
# SF-295 CNS = test system: SF-295 CNS
# SF-539 CNS = test system: SF-539 CNS
# SK-MEL-2 melanoma = test system: SK-MEL-2 melanoma
# SK-MEL-28 melanoma = test system: SK-MEL-28 melanoma
# SK-OV-3 ovarian = test system: SK-OV-3 ovarian
# SNB-19 CNS = test system: SNB-19 CNS
# SNB-75 CNS = test system: SNB-75 CNS
# SNB-78 CNS = test system: SNB-78 CNS
# SR leukemia = test system: SR leukemia
# U251 CNS = test system: U251 CNS
# UACC-257 melanoma = test system: UACC-257 melanoma
# UACC-62 melanoma = test system: UACC-62 melanoma
# UO-31 renal = test system: UO-31 renal
# A549 NSCLC = test system: A549 NSCLC
# BT-549 breast = test system: BT-549 breast
# CAKI-1 renal = test system: CAKI-1 renal
# DU-145 prostate = test system: DU-145 prostate
# EKVX NSCLC = test system: EKVX NSCLC
# HCC-2998 colon = test system: HCC-2998 colon
# HCT-15 colon = test system: HCT-15 colon
# HS 578T breast = test system: HS 578T breast
# LOX IMVI melanoma = test system: LOX IMVI melanoma
# MCF7 breast = test system: MCF7 breast
# MDA-MB-231 breast = test system: MDA-MB-231 breast
# MDA-MB-435 = test system: MDA-MB-435
# MDA-N = test system: MDA-N
# MOLT-4 leukemia = test system: MOLT-4 leukemia
# NCI-H226 lung = test system: NCI-H226 lung
# NCI/ADR-RES ovarian = test system: NCI/ADR-RES ovarian
# OVCAR-3 ovarian = test system: OVCAR-3 ovarian
# OVCAR-8 ovarian = test system: OVCAR-8 ovarian
# PC-3 prostate = test system: PC-3 prostate
# SK-MEL-5 melanoma = test system: SK-MEL-5 melanoma
# SN12C renal = test system: SN12C renal
# SW-620 colon = test system: SW-620 colon
# T-47D breast = test system: T-47D breast
# TK-10 renal = test system: TK-10 renal
compound,measurement,setting,value
COc1ccc2c(c1)CC[C@@H]1C2CC[C@]2(C)C(=O)N(CCN3CCCCC3)C(=O)CC12 (stereo partly drawn),TGI,786-0 renal,> 100 µM
same,TGI,A498 renal,> 100 µM
same,TGI,ACHN renal,> 100 µM
same,TGI,CCRF-CEM leukemia,> 100 µM
same,TGI,COLO 205 colon,> 100 µM
same,TGI,HCT-116 colon,> 100 µM
same,TGI,HL-60(TB) leukemia,61.1 µM
same,TGI,HOP-62 NSCLC,> 100 µM
same,TGI,HOP-92 NSCLC,> 100 µM
same,TGI,HT29 colon,> 100 µM
same,TGI,IGROV1 ovarian,> 100 µM
same,TGI,K-562 leukemia,> 100 µM
same,TGI,KM12 colon,> 100 µM
same,TGI,KM20L2 colon,> 100 µM
same,TGI,LXFL 529 NSCLC,> 100 µM
same,TGI,M14 melanoma,48.9 µM
same,TGI,M19-MEL melanoma,> 100 µM
same,TGI,MALME-3M melanoma,> 100 µM
same,TGI,NCI-H23 lung,> 100 µM
same,TGI,NCI-H460 lung,> 100 µM
same,TGI,NCI-H522 lung,> 100 µM
same,TGI,OVCAR-4 ovarian,> 100 µM
same,TGI,OVCAR-5 ovarian,> 100 µM
same,TGI,RPMI-8226 leukemia,> 100 µM
same,TGI,RXF 393 renal,99.2 µM
same,TGI,SF-268 CNS,> 100 µM
same,TGI,SF-295 CNS,> 100 µM
same,TGI,SF-539 CNS,> 100 µM
same,TGI,SK-MEL-2 melanoma,> 100 µM
same,TGI,SK-MEL-28 melanoma,> 100 µM
same,TGI,SK-OV-3 ovarian,> 100 µM
same,TGI,SNB-19 CNS,> 100 µM
same,TGI,SNB-75 CNS,> 100 µM
same,TGI,SNB-78 CNS,> 100 µM
same,TGI,SR leukemia,> 100 µM
same,TGI,U251 CNS,> 100 µM
same,TGI,UACC-257 melanoma,63.4 µM
same,TGI,UACC-62 melanoma,41.7 µM
same,TGI,UO-31 renal,> 100 µM
O=C(NCCSSCCNC(=O)/C(Cc1ccc(O)c(Br)c1)=N/O)/C(Cc1ccc(O)c(Br)c1)=N/O,TGI,786-0 renal,8.49 µM
same,TGI,A498 renal,14.7 µM
same,TGI,A549 NSCLC,15.5 µM
same,TGI,ACHN renal,5.77 µM
same,TGI,BT-549 breast,15 µM
same,TGI,CAKI-1 renal,5.32 µM
same,TGI,CCRF-CEM leukemia,> 18.3 µM
same,TGI,COLO 205 colon,6.82 µM
same,TGI,DU-145 prostate,12.7 µM
same,TGI,EKVX NSCLC,> 24 µM
same,TGI,HCC-2998 colon,8.11 µM
same,TGI,HCT-116 colon,5.98 µM
same,TGI,HCT-15 colon,14.4 µM
same,TGI,HL-60(TB) leukemia,> 22.6 µM
same,TGI,HOP-62 NSCLC,6.1 µM
same,TGI,HOP-92 NSCLC,22.9 µM
same,TGI,HS 578T breast,> 50 µM
same,TGI,HT29 colon,> 21.4 µM
same,TGI,IGROV1 ovarian,7.15 µM
same,TGI,K-562 leukemia,> 50 µM
same,TGI,KM12 colon,10.5 µM
same,TGI,LOX IMVI melanoma,3.31 µM
same,TGI,M14 melanoma,7.22 µM
same,TGI,MALME-3M melanoma,7.44 µM
same,TGI,MCF7 breast,8.21 µM
same,TGI,MDA-MB-231 breast,8.26 µM
same,TGI,MDA-MB-435,> 24.9 µM
same,TGI,MDA-N,6.99 µM
same,TGI,MOLT-4 leukemia,8.58 µM
same,TGI,NCI-H226 lung,41.9 µM
same,TGI,NCI-H23 lung,13.1 µM
same,TGI,NCI-H460 lung,> 20.6 µM
same,TGI,NCI-H522 lung,4.26 µM
same,TGI,NCI/ADR-RES ovarian,7.97 µM
same,TGI,OVCAR-3 ovarian,6.06 µM
same,TGI,OVCAR-4 ovarian,18.3 µM
same,TGI,OVCAR-5 ovarian,13.5 µM
same,TGI,OVCAR-8 ovarian,> 50 µM
same,TGI,PC-3 prostate,8.21 µM
same,TGI,RPMI-8226 leukemia,5.35 µM
same,TGI,RXF 393 renal,2 µM
same,TGI,SF-268 CNS,9.75 µM
same,TGI,SF-295 CNS,4.29 µM
same,TGI,SF-539 CNS,8.84 µM
same,TGI,SK-MEL-2 melanoma,3.26 µM
same,TGI,SK-MEL-28 melanoma,16.3 µM
same,TGI,SK-MEL-5 melanoma,2.33 µM
same,TGI,SK-OV-3 ovarian,3.32 µM
same,TGI,SN12C renal,5.73 µM
same,TGI,SNB-19 CNS,7.96 µM
same,TGI,SNB-75 CNS,> 13.6 µM
same,TGI,SR leukemia,7.08 µM
same,TGI,SW-620 colon,14.3 µM
same,TGI,T-47D breast,13.1 µM
same,TGI,TK-10 renal,> 22.4 µM
same,TGI,U251 CNS,4.53 µM
same,TGI,UACC-257 melanoma,> 34.6 µM
same,TGI,UACC-62 melanoma,7.32 µM
same,TGI,UO-31 renal,8.58 µM
